Legend:
[1] = system: human hepatocytes; assay: Metabolic studies in primary hepatocytes; assay type: in vitro ADME; conditions: 10 μM, 2-24 hr
Description: The metabolism of compounds 25, 27 and 5-2, at a concentration of 10 μM, were investigated in fresh primary cultures of human, dog and mouse hepatocytes. Plated hepatocytes from humans (XenoTech, mixed gender, pooled from 10 donors), male Beagle dog (BioreclamationIVT), and male ICR/CD-1 mice (BioreclamationIVT, 8 donors) in 6-well plates with matrigel overlay were incubated in singlet with 10 μM TA. After 2, 4, 6, 8 or 24 hr, intracellular levels of nucleotide prodrugs and their potential metabolites (prodrugs, monophosphates, triphosphates and nucleosides) were quantitated by LC-MS/MS. Concentrations below the lower limit of quantitation (1.5 pmol/10^6 cells for prodrugs, monophosphates and nucleosides and 12 pmol/10^6 cells for triphosphates) were extrapolated from the standard curves.

[2] = system: HCV wild type replicon; assay: microbe, parasite or virus in culture; assay type: cell-based
Description: (§1) A transient transfection assay was performed to determine the sensitivity of the […] of HCV to test compounds. Huh-7 cells were electroporated in the presence of RNA transcribed from wild type or S282T HCV replicon plasmids from the T7 promoter. The transfected cells were seeded in to 96-well plates at 7.5×10^3 cells per well in Dulbecco's Modified Eagle's medium. After 24 hr of incubation, medium was removed and replaced with fresh medium containing no or various concentrations of test compounds. Following an additional 96-hr incubation, the anti-HCV activity was measured by luciferase endpoint with Britelite™ Plus luminescence reporter gene kit (Perkin Elmer, Shelton, CT). Duplicate plates were treated and incubated in parallel for assessment of cellular toxicity by staining with the tetrazolium dye XTT.

[3] = system: HCV S282T replicon; assay: microbe, parasite or virus in culture; assay type: cell-based
Description: as §1

[4] = system: human bone marrow progenitor cells; assay: Human Bone Marrow Progenitor Cell Assay; assay type: cell-based; conditions: 14-day incubations, colony counts
Description: Fresh human bone marrow progenitor cells (Invitrogen) suspended in either BFU-E or GM-CSF-specific culture medium were added, at 10^5 cells/well, to triplicate serial dilutions of TA in 6-well plates. After 14-day incubations, colony counts were used to determine CC50 values. BFU-E colonies were confirmed using the benzidene technique.

[5] = system: HCV Genotype 4d, NS5B Mutation none; assay: microbe, parasite or virus in culture; assay type: cell-based
Description: (§2) Various patient-derived HCV genotypes containing wild-type and resistance-associated variants were used to determine their relative replication sensitivity to test compounds. Replicon resistance test vectors (RTVs) containing the NS5B genomic regions were prepared using viral RNA isolated from plasma of HCV patients. Each NS5B region was amplified by reverse-transcription polymerase chain reaction and cloned into an HCV replicon RTV which was then transferred by electroporation into Huh-7 cells.

[6] = system: HCV Genotype 2b, NS5B Mutation none; assay: microbe, parasite or virus in culture; assay type: cell-based
Description: as §2

[7] = system: HCV Genotype 3a-1, NS5B Mutation none; assay: microbe, parasite or virus in culture; assay type: cell-based
Description: as §2

[8] = system: HCV Genotype 1b, NS5B Mutation none; assay: microbe, parasite or virus in culture; assay type: cell-based
Description: as §2

[9] = system: HCV Genotype 3a-2, NS5B Mutation none; assay: microbe, parasite or virus in culture; assay type: cell-based
Description: as §2

[10] = system: HCV Genotype 2a, NS5B Mutation none; assay: microbe, parasite or virus in culture; assay type: cell-based
Description: as §2

[11] = system: HCV Genotype 1a, NS5B Mutation none; assay: microbe, parasite or virus in culture; assay type: cell-based
Description: as §2

[12] = system: HCV Genotype 1a, NS5B Mutation L159F and S282T; assay: microbe, parasite or virus in culture; assay type: cell-based
Description: as §2

[13] = system: HCV Genotype 1a, NS5B Mutation L159F; assay: microbe, parasite or virus in culture; assay type: cell-based
Description: as §2

[14] = system: HCV Genotype 1b, NS5B Mutation C316N; assay: microbe, parasite or virus in culture; assay type: cell-based
Description: as §2

[15] = system: HCV Genotype 4a, NS5B Mutation none; assay: microbe, parasite or virus in culture; assay type: cell-based
Description: as §2

[16] = system: HCV genotype 1b luciferase reporter replicon; assay: microbe, parasite or virus in culture; assay type: cell-based; conditions: Hepatitis C virus, HuH-7-Luc/Neo-ET, 72 h, read-out: HCV Replicon EC50/EC95: EC50
[17] = Hepatitis C virus, 96 h, read-out: IC50 Value
[18] = Hepatitis C virus, read-out: IC50 Value
[19] = genotype 3a-1, no NS5B mutation
[20] = genotype 3a-2, no NS5B mutation
[21] = genotype 1a, NS5B L159F and S282T

CC(C)OC(=O)[C@H](C)N[P@](=O)(OCC1O[C@@H](n2cnc3c(N(C)C4CC4)nc(N)nc32)[C@](C)(F)[C@@H]1O)Oc1ccccc1 (stereo partly drawn) [Compound 27, isopropyl ((((S)-(2R,3R,4R,5R)-5-(2-amino-6-(methylcyclopropanamino)-9H-purin-9-yl)-4-fluoro-3-hydroxy-4-methyltetrahydrofuran-2-yl)methoxy)-phenoxy-phosphoryl)-L-alaninate]
predominant metabolite observed in cultured human hepatocytes [1]: β-D-2′-deoxy-2′-α-fluoro-2′-β-methyl-guanine triphosphate | IC95 Value [2]: 4.1 nM | IC50 [2, 17]: < 1 nM | Fold Change in IC50 from Sofosbuvir ([2]; NS5B Mutation None): >36.4 | Fold Change in IC95 from Sofosbuvir ([2]; NS5B Mutation None): 53.2 | cross-resistance to S282T variant [3]: neither 25, 27, nor 5-2 compounds showed any evidence of cross-resistance | IC50 [3, 17]: < 1 nM | Fold Change in IC50 from Sofosbuvir ([3]; NS5B Mutation S282T): >278 | Fold Change in IC95 from Sofosbuvir ([3]; NS5B Mutation S282T): >84.7 | IC95 Value ([3]; NS5B Mutation S282T, transient assay, 96-hr): 11.8 nM | cytotoxicity against bone marrow stem cells in vitro [4]: no cytotoxicity | IC50 [5, 17]: 5.6 nM | Fold Change in IC50 from Sofosbuvir ([5]; genotype 4d, no NS5B mutation): 16.7 | Fold Change in IC95 from Sofosbuvir ([5]; genotype 4d, no NS5B mutation): 26.6 | IC95 Value ([5]; genotype 4d, no NS5B mutation): 38.4 nM | IC50 [6, 18]: 3.1 nM | Fold Change in IC50 from Sofosbuvir ([6]; genotype 2b, no NS5B mutation): 14.4 | Fold Change in IC95 from Sofosbuvir ([6]; genotype 2b, no NS5B mutation): 20.1 | IC95 Value ([6]; genotype 2b, no NS5B mutation): 14.7 nM | IC50 [7, 18]: 4.4 nM | Fold Change in IC50 from Sofosbuvir [7, 19]: 28.4 | Fold Change in IC95 from Sofosbuvir [7, 19]: 27.2 | IC95 Value [7, 19]: 25.4 nM | IC50 [8, 18]: 5 nM | Fold Change in IC50 from Sofosbuvir ([8]; genotype 1b, no NS5B mutation): 0.9 | Fold Change in IC95 from Sofosbuvir ([8]; genotype 1b, no NS5B mutation): 22.2 | IC95 Value ([8]; genotype 1b, no NS5B mutation): 28.9 nM | IC50 [9, 18]: 4.5 nM | Fold Change in IC50 from Sofosbuvir [9, 20]: 27.5 | Fold Change in IC95 from Sofosbuvir [9, 20]: 34.6 | IC95 Value [9, 20]: 23.3 nM | IC50 [10, 18]: 2.9 nM | Fold Change in IC50 from Sofosbuvir ([10]; genotype 2a, no NS5B mutation): 7.9 | Fold Change in IC95 from Sofosbuvir ([10]; genotype 2a, no NS5B mutation): 12.0 | IC95 Value ([10]; genotype 2a, no NS5B mutation): 16.2 nM | IC50 [11, 18]: 4.2 nM | Fold Change in IC50 from Sofosbuvir ([11]; genotype 1a, no NS5B mutation): 15.0 | Fold Change in IC95 from Sofosbuvir ([11]; genotype 1a, no NS5B mutation): 19.3 | IC95 Value ([11]; genotype 1a, no NS5B mutation): 26.4 nM | cross-resistance to L159F and S282T mutant [12]: neither 25, 27 nor 5-2 compound showed any evidence of cross-resistance | IC50 [12, 18]: 14.9 nM | Fold Change in IC50 from Sofosbuvir [12, 21]: 108.4 | Fold Change in IC95 from Sofosbuvir [12, 21]: 119.7 | IC95 Value [12, 21]: 141.6 nM | cross-resistance to L159F mutant [13]: neither 25, 27 nor 5-2 compound showed any evidence of cross-resistance | IC50 [13, 18]: 5.1 nM | Fold Change in IC50 from Sofosbuvir ([13]; genotype 1a, NS5B L159F): 22.3 | Fold Change in IC95 from Sofosbuvir ([13]; genotype 1a, NS5B L159F): 29.5 | IC95 Value ([13]; genotype 1a, NS5B L159F): 36.2 nM | cross-resistance to C316N mutant [14]: neither 25, 27 nor 5-2 compound showed any evidence of cross-resistance | IC50 [14, 18]: 3.1 nM | Fold Change in IC50 from Sofosbuvir ([14]; genotype 1b, NS5B C316N): 23.5 | Fold Change in IC95 from Sofosbuvir ([14]; genotype 1b, NS5B C316N): 28.7 | IC95 Value ([14]; genotype 1b, NS5B C316N): 16.5 nM | IC50 [15, 18]: 3.6 nM | Fold Change in IC50 from Sofosbuvir ([15]; genotype 4a, no NS5B mutation): 20.7 | Fold Change in IC95 from Sofosbuvir ([15]; genotype 4a, no NS5B mutation): 17.9 | IC95 Value ([15]; genotype 4a, no NS5B mutation): 38.1 nM | EC50 [16]: 5 nM

— US12084473B2, “β-D-2′-deoxy-2′-α-fluoro-2′-β-C-substituted-2-modified-N6-substituted purine nucleotides for HCV treatment” (Atea Pharmaceuticals, Inc., priority 2015, dated 2024)
